Data: US20100298249A1, “PHARMACEUTICAL OR COSMETIC PREPARATIONS FOR TOPICAL AND/OR PARENTERAL APPLICATION, PREPARATION METHODS THEREOF AND USE OF SAME” (priority 2007, published 2010)

Assays:
[1] = target: hyaluronidase of bovine origin (Bos taurus, UniProt Q2YDK3); assay: Inhibitory effect on hyaluronidase activity of bovine origin (turbidimetry of nonhydrolysed hyaluronic acid); format: biochemical; conditions: various concentrations, FIG. 1
Description: Determination of the IC50 of GLZ, with or without Preincubation at 37° C.: GLZ, at various concentrations, is or is not preincubated for 20 minutes at 37° C. in the presence of the enzyme. The enzyme reaction is triggered by adding the hyaluronic acid solution (time T0). After incubation for 20 minutes, the nonhydrolysed hyaluronic acid is precipitated by adding acidic bovine albumin solution. In order to verify that the preincubation step has no effect on the stability of the hyaluronidase, an aliquot of a solution of the enzyme is placed at 37° C. for 20 minutes. Another aliquot is conserved in an ice bath for 19 minutes, and is then incubated at 37° C. for 1 minute. A solution of hyaluronic acid is then added to each aliquot (T0). After incubation for 15, 30 or 45 minutes, the nonhydrolysed hyaluronic acid is precipitated by addition of acidic bovine albumin solution. After the precipitation step, the turbidimetry of the solutions is determined on a spectrophotometer at a wavelength of 600 nm. The optical density (OD) of these solutions is subtracted from the OD of a control solution of hyaluronic acid (of the same concentration) not hydrolysed by the enzyme. This difference in OD, which is inversely proportional to the concentration of hyaluronic acid, is used to measure the activity of the hyaluronidase.

[2] = humans; cited from earlier work

Sequence of hyaluronidase of bovine origin (Q2YDK3 entry or part of it): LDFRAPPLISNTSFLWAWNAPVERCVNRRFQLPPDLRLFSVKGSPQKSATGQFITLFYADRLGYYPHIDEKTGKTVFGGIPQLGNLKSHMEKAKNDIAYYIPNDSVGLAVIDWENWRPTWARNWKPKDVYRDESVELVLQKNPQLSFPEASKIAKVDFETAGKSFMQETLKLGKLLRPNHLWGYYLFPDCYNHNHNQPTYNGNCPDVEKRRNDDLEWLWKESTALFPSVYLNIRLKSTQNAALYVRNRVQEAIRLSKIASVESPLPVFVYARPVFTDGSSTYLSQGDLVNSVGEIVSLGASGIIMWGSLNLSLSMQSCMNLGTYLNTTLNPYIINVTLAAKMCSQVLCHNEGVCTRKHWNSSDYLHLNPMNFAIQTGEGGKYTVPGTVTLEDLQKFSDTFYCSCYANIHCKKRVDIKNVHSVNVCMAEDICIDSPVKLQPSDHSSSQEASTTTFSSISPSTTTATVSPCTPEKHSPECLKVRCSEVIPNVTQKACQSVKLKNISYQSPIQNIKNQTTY

## CC1(C)[C@@H](O[C@H]2O[C@H](C(=O)O)[C@@H](O)[C@H](O)[C@H]2O[C@@H]2O[C@H](C(=O)O)[C@@H](O)[C@H](O)[C@H]2O)CC[C@]2(C)[C@H]3C(=O)C=C4[C@@H]5C[C@@](C)(C(=O)O)CC[C@]5(C)CC[C@@]4(C)[C@]3(C)CC[C@@H]12 [GLZ, Glycyrrhizin]
[1]
  inhibitory effect on the bovine hyaluronidase: dose-dependent

## hyaluronic acid
[2]
  excretion in the urine: less than 1 % of total clearance
